Measured values taken from paper PMC8391421, “Identification of Novel Positive Allosteric Modulators of Neurotrophin Receptors for the Treatment of Cognitive Dysfunction” (Cells, 2021).
pEC50: −log10 of the molar value.

How the values were obtained:
[1] = target: T1, TrkA (Homo sapiens, UniProt P04629); experiment: TrkA PathHunter cell-based assay (U2OS-TrkA/p75)
T1 construct: host or cells: U2OS (human osteosarcoma), co-expressing p75 and SHC-1 fused to the enzyme acceptor
Procedure: U2OS cells were maintained subconfluent in EMEM supplemented with 10% FBS and penicillin/streptomycin/hygromycin and G418. One day prior to the experiment, 5000 cells of EMEM supplemented with 0.5% horse serum were seeded in each well of a 384-well white plate. The assay was performed as previously described. Briefly, the TrkA or TrkB cell-based PathHunter® assays use enzyme fragment complementation (EFC) technology for the complementation of two β-galactosidase (β-gal) fragments in order to study protein–protein interactions. Upon activation with ligand, TrkA or TrkB are phosphorylated on several tyrosine residues, including tyrosine 490, leading to an interaction with SHC-1. In the PathHunter® assays, the Trk-receptors are fused to an enzyme donor tag, and SHC-1 is fused to a larger part of β-gal called an enzyme acceptor. The interactions between the recombinant enzyme donor, i.e., the Trk-receptor, with an enzyme acceptor, i.e., SHC-1, leads to an active β-gal enzyme. The functional (complemented) β-gal will hydrolyze a substrate to generate a luminescence signal. The generated luminescence was read using an EnVision plate reader from PerkinElmer, Upplands Väsby, Sweden, or an ID5 plate reader from Molecular Devices, Berkshire, RG41 5TS UK. […] Min- and Max-control wells were included on each plate.
Both Toltrazuril and Ponazuril are registered veterinary products prescribed for parasitic infections in animals. […] The activation of Trk-receptors leads to an intracellular interaction between the Trk-receptor and SHC-1 and thereby to the complementation of β-gal, which will render in a functional enzyme. β-gal will hydrolyze a substrate to generate luminescence, which is proportional to the number of activated receptors.

[2] = target: T2, full-length TrkA-HA (Homo sapiens, UniProt P04629); experiment: Kinase activity assay of immunoprecipitated HA-tagged full length TrkA (LANCE TR-FRET); type: biochemical; details: 5 µM compound, increasing ATP, vs DMSO
T2 construct: Full-length TrkA with a HA-tag (TrkA-HA) fused to the C-terminus; A6 used the anti-HA immunoprecipitate and A14 the 12,000 x g lysate supernatant
Procedure: A cDNA expression plasmid (pCMV3) with C-terminal-HA tagged human NTRK1 cDNA subcloned between the HindIII and XbaI sites was obtained from SinoBiological (NordicBiosite, Sweden). The human neuroblastoma cell line SH-SY5Y (ATCC, LGC Standards GmbH, Wesel, Germany) was transfected with lipofectamine 3000 and 2 µg of the plasmid. Hygromycin was used for the selection, and expansion of the TrkA-positive clones were performed using 200 µg/mL of Hygromycin. A clone with stable TrkA–HA expression was used for protein expression. Briefly, SH-SY5Y-TrkA-HA cells were seeded in T175cm2 flasks and grown until confluency. A total of 10 flasks were used for each experiment. Cells were detached using Accutase and washed twice with Dulbecco’s PBS through centrifugation. The final cell pellet was resuspended in 2 mL lysis buffer (FNN0011, Thermo Fisher Scientific, Gothenburg, Sweden) supplemented with protease and phosphatase inhibitors and 1 mM DTT. The cell suspension was sonicated with a probe sonicator at 40% amplitude for 2 × 5 s. The resulting homogenate was centrifuged for 10 min at 12,000× g. […] TR-FRET was measured using an excitation wavelength of 340 nm and an emission wavelength of 665 nm with an iD5 plate reader (Molecular Devices, Berkshire, RG41 5TS UK). […]

T1 sequence (P04629 33-796): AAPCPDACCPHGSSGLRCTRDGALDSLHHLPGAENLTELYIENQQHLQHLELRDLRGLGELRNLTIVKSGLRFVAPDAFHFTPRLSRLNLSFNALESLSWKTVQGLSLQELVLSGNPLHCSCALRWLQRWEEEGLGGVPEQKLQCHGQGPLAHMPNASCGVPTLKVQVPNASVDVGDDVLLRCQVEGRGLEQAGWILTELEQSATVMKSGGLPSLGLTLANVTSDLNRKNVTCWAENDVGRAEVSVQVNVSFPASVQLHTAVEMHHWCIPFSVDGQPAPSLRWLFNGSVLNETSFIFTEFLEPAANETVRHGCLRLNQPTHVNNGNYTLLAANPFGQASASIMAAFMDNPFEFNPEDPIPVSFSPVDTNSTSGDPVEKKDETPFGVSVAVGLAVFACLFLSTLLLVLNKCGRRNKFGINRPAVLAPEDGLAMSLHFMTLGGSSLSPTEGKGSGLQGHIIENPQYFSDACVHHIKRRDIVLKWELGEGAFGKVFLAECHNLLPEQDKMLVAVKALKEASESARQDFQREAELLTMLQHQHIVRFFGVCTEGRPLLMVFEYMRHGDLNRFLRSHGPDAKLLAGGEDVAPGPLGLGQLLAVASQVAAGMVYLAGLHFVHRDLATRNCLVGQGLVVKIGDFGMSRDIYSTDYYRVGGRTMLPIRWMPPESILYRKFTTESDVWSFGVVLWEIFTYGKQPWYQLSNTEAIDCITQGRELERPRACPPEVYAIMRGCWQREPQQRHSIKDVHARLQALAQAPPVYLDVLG
T2 sequence (P04629 33-796): as above

Compound: Cc1cc(-n2c(=O)[nH]c(=O)n(C)c2=O)ccc1Oc1ccc(S(=O)(=O)C(F)(F)F)cc1 [ACD855, Toltrazuril-sulfone]
- modulation of TrkA activity over NGF dose-response curve ([1]; 0.3, 1 and 3 µM compound with a wide range of NGF concentrations): positively modulated TrkA activity
- pEC50 ([1]; PathHunter cell-based assay): 5.72
- TrkA Effect (efficacy) ([1]; PathHunter cell-based assay): 144%
- activation of TrkA-receptor by compound itself ([1]; without ligand, 100% = 30 ng/mL ligand): 45%
- effect on Vmax(app) of TrkA [2]: significantly increase
